Measurements from patent US8987199B2, “Pharmaceutical compositions for intranasal administration for the treatment of neurodegenerative disorders” (Nerve Access, Inc., priority 2011, dated 2015).

Test: Solubility of clioquinol in an aqueous medium
Type: physicochemical
From the text: The invention also includes a process to dissolve, stabilize and incorporate clioquinol into an intranasal preparation. Clioquinol dissolves in DMSO. However, it precipitates upon the addition of an aqueous vehicle to that combination. In order to dissolve in an aqueous medium clioquinol requires a pH of approximately 11. A buffering system was developed that maintains the solubility and stability of clioquinol within a pH 7-8 which is compatible with the physiological pH oh the nasal tissue. The buffering system was adjusted to provide a capacity of pH 5-7, within which the preparation will be contained within 7-8 pH. The choice of the buffering system was based on the safety, chemical and physical effects of its ingredients on clioquinol and the other ingredients incorporated in the formula, as well as its effects on the end user of present pharmaceutical composition. The buffer system comprises boric acid and sodium carbonate in certain proportions to produce a protective pH 7-8 at which clioquinol stays physically and chemically stable.

- pH required to dissolve in an aqueous medium: approximately 11
SMILES: Oc1c(I)cc(Cl)c2cccnc12 [Clioquinol]
